# What was measured:
# [1] = target: T1, PKBb (Homo sapiens, UniProt P31751); assay: Premier Screen kinase activity screening (33P ATP filter binding); assay type: biochemical; conditions: 10 μM SCO-101, mean of assay duplicates, read-out: Kinase activity (percentage of DMSO control)
# T1 construct: MRC in Dundee (screening service)
# Source text: (§1) The kinase activity screening was done at MRC in Dundee. The screen was a so-called “Premier Screen” with 140 kinases. More specific information can be found here: http://www.kinase-screen.mrc.ac.uk/services/premier-screen
# (§2) The method is based on a radioactive filter binding assay using 33P ATP (Hastie, et al 2006. Nat Protoc. 2006; 1(2):968-71; Bain, et al 2007. Biochem J. 2007 Dec. 15; 408(3):297-315). This method is sensitive, accurate and provides a direct measure of kinase enzyme activity. A concentration of 10 μM SCO-101 was used.
# (§3) In the table below, the data is portrayed as the mean percentage activity of assay duplicates and a standard deviation. These percentage activities were calculated in comparison to DMSO controls. 10 μM SCO-101 reduced the activity of SRPK1 to 6% of the DMSO control.
# [2] = target: T2, MEKK1 (Homo sapiens, UniProt Q13233); assay: as above; assay type: biochemical; conditions: 10 μM SCO-101, mean of assay duplicates, read-out: Kinase activity (percentage of DMSO control)
# T2 construct: purchased MRC Dundee, Premier Screen (contract screening service)
# Source text: as §1, §2, §3
# [3] = target: T3, NEK2a (Homo sapiens, UniProt P51955); assay: as above; assay type: biochemical; conditions: 10 μM SCO-101, mean of assay duplicates, read-out: Kinase activity (percentage of DMSO control)
# T3 construct: purchased MRC in Dundee (Premier Screen service)
# Source text: as §1, §2, §3
# [4] = target: T4, PKA (Homo sapiens, UniProt P17612); assay: as above; assay type: biochemical; conditions: 10 μM SCO-101, mean of assay duplicates, read-out: Kinase activity (percentage of DMSO control)
# T4 construct: purchased MRC Dundee, Premier Screen (contract screening service)
# Source text: as §1, §2, §3
# [5] = target: T5, TBK1 (Homo sapiens, UniProt Q9UHD2); assay: as above; assay type: biochemical; conditions: 10 μM SCO-101, mean of assay duplicates, read-out: Kinase activity (percentage of DMSO control)
# T5 construct: purchased MRC in Dundee (Premier Screen service)
# Source text: as §1, §2, §3
# [6] = target: T6, PAK4 (Homo sapiens, UniProt O96013); assay: as above; assay type: biochemical; conditions: 10 μM SCO-101, mean of assay duplicates, read-out: Kinase activity (percentage of DMSO control)
# T6 construct: purchased MRC in Dundee (Premier Screen service)
# Source text: as §1, §2, §3
# [7] = target: T7, SIK3 (Homo sapiens, UniProt Q9Y2K2); assay: as above; assay type: biochemical; conditions: 10 μM SCO-101, mean of assay duplicates, read-out: Kinase activity (percentage of DMSO control)
# T7 construct: purchased MRC in Dundee (Premier Screen service)
# Source text: as §1, §2, §3
# [8] = target: TLK1 (Homo sapiens, UniProt Q9UKI8); assay: as above; assay type: biochemical; conditions: 10 μM SCO-101, mean of assay duplicates, read-out: Kinase activity (percentage of DMSO control)
# Source text: as §1, §2, §3
# [9] = target: T8, IKKe (Homo sapiens, UniProt Q14164); assay: as above; assay type: biochemical; conditions: 10 μM SCO-101, mean of assay duplicates, read-out: Kinase activity (percentage of DMSO control)
# T8 construct: purchased MRC in Dundee (Premier Screen service)
# Source text: as §1, §2, §3
# [10] = target: T9, S6K1 (Homo sapiens, UniProt P23443); assay: as above; assay type: biochemical; conditions: 10 μM SCO-101, mean of assay duplicates, read-out: Kinase activity (percentage of DMSO control)
# T9 construct: MRC in Dundee (screening service)
# Source text: as §1, §2, §3
# [11] = target: T10, EPH-A4 (Homo sapiens, UniProt P54764); assay: as above; assay type: biochemical; conditions: 10 μM SCO-101, mean of assay duplicates, read-out: Kinase activity (percentage of DMSO control)
# T10 construct: MRC Dundee (screening service)
# Source text: as §1, §2, §3
# [12] = target: HIPK3 (Homo sapiens, UniProt Q9H422); assay: as above; assay type: biochemical; conditions: 10 μM SCO-101, mean of assay duplicates, read-out: Kinase activity (percentage of DMSO control)
# Source text: as §1, §2, §3
# [13] = target: T11, MARK3 (Homo sapiens, UniProt P27448); assay: as above; assay type: biochemical; conditions: 10 μM SCO-101, mean of assay duplicates, read-out: Kinase activity (percentage of DMSO control)
# T11 construct: MRC Dundee (screening service)
# Source text: as §1, §2, §3
# [14] = target: T12, EF2K (Homo sapiens, UniProt O00418); assay: as above; assay type: biochemical; conditions: 10 μM SCO-101, mean of assay duplicates, read-out: Kinase activity (percentage of DMSO control)
# T12 construct: MRC Dundee (screening service)
# Source text: as §1, §2, §3
# [15] = target: T13, CAMK1 (Homo sapiens, UniProt Q14012); assay: as above; assay type: biochemical; conditions: 10 μM SCO-101, mean of assay duplicates, read-out: Kinase activity (percentage of DMSO control)
# T13 construct: purchased MRC in Dundee (Premier Screen service)
# Source text: as §1, §2, §3
# [16] = target: T14, RSK2 (Homo sapiens, UniProt P51812); assay: as above; assay type: biochemical; conditions: 10 μM SCO-101, mean of assay duplicates, read-out: Kinase activity (percentage of DMSO control)
# T14 construct: purchased MRC in Dundee (Premier Screen service)
# Source text: as §1, §2, §3
# [17] = target: T15, IGF-1R (Homo sapiens, UniProt P08069); assay: as above; assay type: biochemical; conditions: 10 μM SCO-101, mean of assay duplicates, read-out: Kinase activity (percentage of DMSO control)
# T15 construct: purchased MRC in Dundee (Premier Screen service)
# Source text: as §1, §2, §3
# [18] = target: T16, PKCz (Homo sapiens, UniProt Q05513); assay: as above; assay type: biochemical; conditions: 10 μM SCO-101, mean of assay duplicates, read-out: Kinase activity (percentage of DMSO control)
# T16 construct: MRC Dundee (screening service)
# Source text: as §1, §2, §3
# [19] = target: T17, ULK2 (Homo sapiens, UniProt Q8IYT8); assay: as above; assay type: biochemical; conditions: 10 μM SCO-101, mean of assay duplicates, read-out: Kinase activity (percentage of DMSO control)
# T17 construct: MRC Dundee (screening service)
# Source text: as §1, §2, §3
# [20] = target: T18, MAPKAP-K2 (Homo sapiens, UniProt P49137); assay: as above; assay type: biochemical; conditions: 10 μM SCO-101, mean of assay duplicates, read-out: Kinase activity (percentage of DMSO control)
# T18 construct: MRC Dundee (screening service)
# Source text: as §1, §2, §3
# [21] = target: T19, MSK1 (Homo sapiens, UniProt O75582); assay: as above; assay type: biochemical; conditions: 10 μM SCO-101, mean of assay duplicates, read-out: Kinase activity (percentage of DMSO control)
# T19 construct: MRC Dundee (screening service)
# Source text: as §1, §2, §3
# [22] = target: T20, SmMLCK (Homo sapiens, UniProt Q15746); assay: as above; assay type: biochemical; conditions: 10 μM SCO-101, mean of assay duplicates, read-out: Kinase activity (percentage of DMSO control)
# T20 construct: purchased MRC in Dundee (Premier Screen service)
# Source text: as §1, §2, §3
# [23] = target: ULK1 (Homo sapiens, UniProt O75385); assay: as above; assay type: biochemical; conditions: 10 μM SCO-101, mean of assay duplicates, read-out: Kinase activity (percentage of DMSO control)
# Source text: as §1, §2, §3
# [24] = target: T21, MKK6 (Homo sapiens, UniProt P52564); assay: as above; assay type: biochemical; conditions: 10 μM SCO-101, mean of assay duplicates, read-out: Kinase activity (percentage of DMSO control)
# T21 construct: purchased MRC Dundee, Premier Screen (contract screening service)
# Source text: as §1, §2, §3
# [25] = target: T22, MLK3 (Homo sapiens, UniProt Q16584); assay: as above; assay type: biochemical; conditions: 10 μM SCO-101, mean of assay duplicates, read-out: Kinase activity (percentage of DMSO control)
# T22 construct: purchased MRC Dundee, Premier Screen (contract screening service)
# Source text: as §1, §2, §3
# [26] = target: PKD1 (Homo sapiens, UniProt Q15139); assay: as above; assay type: biochemical; conditions: 10 μM SCO-101, mean of assay duplicates, read-out: Kinase activity (percentage of DMSO control)
# Source text: as §1, §2, §3
# [27] = target: T23, MKK2 (Homo sapiens, UniProt P36507); assay: as above; assay type: biochemical; conditions: 10 μM SCO-101, mean of assay duplicates, read-out: Kinase activity (percentage of DMSO control)
# T23 construct: MRC in Dundee (screening service)
# Source text: as §1, §2, §3
# [28] = target: T24, WNK1 (Homo sapiens, UniProt Q9H4A3); assay: as above; assay type: biochemical; conditions: 10 μM SCO-101, mean of assay duplicates, read-out: Kinase activity (percentage of DMSO control)
# T24 construct: purchased MRC Dundee, Premier Screen (contract screening service)
# Source text: as §1, §2, §3
# [29] = target: T25, ERK1 (Homo sapiens, UniProt P27361); assay: as above; assay type: biochemical; conditions: 10 μM SCO-101, mean of assay duplicates, read-out: Kinase activity (percentage of DMSO control)
# T25 construct: purchased MRC in Dundee (Premier Screen service)
# Source text: as §1, §2, §3
# [30] = Cell viability (MTT assay); assay type: cell-based; conditions: human, HT29 SN38 resistant colon cancer cells, HT29 SN38 resistant, SCO-101 20 μM alone, read-out: cell viability, % of untreated control cells
# Experimental: (§4) SN38 was applied to a SN38 sensitive colon cancer cell line (“HT29 parental”) and to a SN38 resistant colon cancer cell line (“HT29 SN38 resistant”).
# (§5) The Log Concentration (μM) used are—1 for SN38. Data represents cell viability data (MTT assay) and cells were incubated with drugs for 72 hours.
# (§6) The Log Concentrations (μM) used are—1 for SN38, and 1.5 for both Srpkin340 and Sphinx 31. Data represents cell viability data (MTT assay) and cells were incubated with drugs for 72 hours.
# [31] = tested on: HT29 SN38 resistant colon cancer cells; assay: Cell viability (MTT assay); assay type: cell-based; conditions: 72 hours
# Experimental: as §4, §5, §6
# T20 sequence (Q15746 923-1914): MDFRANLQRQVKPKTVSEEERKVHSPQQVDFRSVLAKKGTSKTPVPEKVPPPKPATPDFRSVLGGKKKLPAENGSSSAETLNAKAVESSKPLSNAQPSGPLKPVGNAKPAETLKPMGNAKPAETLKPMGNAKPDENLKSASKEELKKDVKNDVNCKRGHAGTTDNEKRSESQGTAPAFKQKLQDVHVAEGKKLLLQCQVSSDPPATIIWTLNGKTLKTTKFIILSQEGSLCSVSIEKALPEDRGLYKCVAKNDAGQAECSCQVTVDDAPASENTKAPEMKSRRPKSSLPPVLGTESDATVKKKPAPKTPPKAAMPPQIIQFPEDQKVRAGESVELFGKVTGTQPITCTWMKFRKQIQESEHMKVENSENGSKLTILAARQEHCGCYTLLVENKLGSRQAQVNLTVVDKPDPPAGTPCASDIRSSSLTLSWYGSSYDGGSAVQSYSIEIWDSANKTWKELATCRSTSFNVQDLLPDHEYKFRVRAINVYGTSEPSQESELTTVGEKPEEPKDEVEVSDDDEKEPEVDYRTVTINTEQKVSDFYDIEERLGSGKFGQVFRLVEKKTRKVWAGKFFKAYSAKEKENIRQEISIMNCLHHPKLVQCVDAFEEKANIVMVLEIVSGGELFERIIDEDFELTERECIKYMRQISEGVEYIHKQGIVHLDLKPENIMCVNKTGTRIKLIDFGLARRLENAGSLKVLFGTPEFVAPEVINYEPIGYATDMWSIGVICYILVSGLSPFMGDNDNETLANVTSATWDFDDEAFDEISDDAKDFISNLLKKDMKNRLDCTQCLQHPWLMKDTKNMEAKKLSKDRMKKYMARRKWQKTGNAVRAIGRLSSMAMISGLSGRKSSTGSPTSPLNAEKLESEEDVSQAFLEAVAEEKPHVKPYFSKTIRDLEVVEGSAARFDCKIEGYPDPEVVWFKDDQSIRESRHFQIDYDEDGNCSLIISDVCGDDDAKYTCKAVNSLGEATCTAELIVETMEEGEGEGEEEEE
# T9 sequence (P23443 whole entry, species assumed): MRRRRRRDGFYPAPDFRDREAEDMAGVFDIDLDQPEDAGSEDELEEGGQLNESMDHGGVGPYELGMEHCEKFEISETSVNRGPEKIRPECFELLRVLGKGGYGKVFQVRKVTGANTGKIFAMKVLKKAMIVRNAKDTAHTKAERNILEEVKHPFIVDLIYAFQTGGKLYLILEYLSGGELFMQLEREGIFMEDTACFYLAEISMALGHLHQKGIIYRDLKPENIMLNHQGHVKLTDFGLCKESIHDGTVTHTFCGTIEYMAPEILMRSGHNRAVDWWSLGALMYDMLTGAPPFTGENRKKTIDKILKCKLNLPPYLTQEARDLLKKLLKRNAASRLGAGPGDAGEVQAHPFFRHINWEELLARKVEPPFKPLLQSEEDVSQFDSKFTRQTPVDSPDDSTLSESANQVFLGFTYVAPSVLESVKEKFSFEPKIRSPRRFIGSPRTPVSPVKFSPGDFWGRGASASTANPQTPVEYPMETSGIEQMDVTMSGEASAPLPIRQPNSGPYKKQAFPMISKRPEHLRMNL
# T1 sequence (P31751 whole entry): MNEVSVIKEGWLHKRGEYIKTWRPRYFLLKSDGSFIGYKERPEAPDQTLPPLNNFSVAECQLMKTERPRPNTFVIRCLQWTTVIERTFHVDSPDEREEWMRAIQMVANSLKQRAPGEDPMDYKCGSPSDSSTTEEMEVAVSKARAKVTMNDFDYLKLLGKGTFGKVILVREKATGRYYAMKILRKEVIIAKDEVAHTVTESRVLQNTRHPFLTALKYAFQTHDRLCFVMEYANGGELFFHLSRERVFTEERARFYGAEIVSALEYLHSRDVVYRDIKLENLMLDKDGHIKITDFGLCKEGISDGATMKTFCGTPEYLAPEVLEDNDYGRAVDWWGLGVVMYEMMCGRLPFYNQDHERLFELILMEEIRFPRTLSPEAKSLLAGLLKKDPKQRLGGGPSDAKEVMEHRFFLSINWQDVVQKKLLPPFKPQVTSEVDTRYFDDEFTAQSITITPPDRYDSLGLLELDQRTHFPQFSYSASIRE
# T21 sequence (P52564 whole entry, species assumed): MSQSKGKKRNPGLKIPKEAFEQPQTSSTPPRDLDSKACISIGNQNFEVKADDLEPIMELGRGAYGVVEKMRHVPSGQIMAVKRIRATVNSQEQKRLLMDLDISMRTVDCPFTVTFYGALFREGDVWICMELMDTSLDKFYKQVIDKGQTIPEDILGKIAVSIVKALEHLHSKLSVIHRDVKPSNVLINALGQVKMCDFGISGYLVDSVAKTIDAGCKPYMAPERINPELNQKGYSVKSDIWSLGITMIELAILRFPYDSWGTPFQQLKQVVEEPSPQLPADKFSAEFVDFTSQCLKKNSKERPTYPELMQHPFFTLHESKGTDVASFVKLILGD
# T14 sequence (P51812 whole entry, species assumed): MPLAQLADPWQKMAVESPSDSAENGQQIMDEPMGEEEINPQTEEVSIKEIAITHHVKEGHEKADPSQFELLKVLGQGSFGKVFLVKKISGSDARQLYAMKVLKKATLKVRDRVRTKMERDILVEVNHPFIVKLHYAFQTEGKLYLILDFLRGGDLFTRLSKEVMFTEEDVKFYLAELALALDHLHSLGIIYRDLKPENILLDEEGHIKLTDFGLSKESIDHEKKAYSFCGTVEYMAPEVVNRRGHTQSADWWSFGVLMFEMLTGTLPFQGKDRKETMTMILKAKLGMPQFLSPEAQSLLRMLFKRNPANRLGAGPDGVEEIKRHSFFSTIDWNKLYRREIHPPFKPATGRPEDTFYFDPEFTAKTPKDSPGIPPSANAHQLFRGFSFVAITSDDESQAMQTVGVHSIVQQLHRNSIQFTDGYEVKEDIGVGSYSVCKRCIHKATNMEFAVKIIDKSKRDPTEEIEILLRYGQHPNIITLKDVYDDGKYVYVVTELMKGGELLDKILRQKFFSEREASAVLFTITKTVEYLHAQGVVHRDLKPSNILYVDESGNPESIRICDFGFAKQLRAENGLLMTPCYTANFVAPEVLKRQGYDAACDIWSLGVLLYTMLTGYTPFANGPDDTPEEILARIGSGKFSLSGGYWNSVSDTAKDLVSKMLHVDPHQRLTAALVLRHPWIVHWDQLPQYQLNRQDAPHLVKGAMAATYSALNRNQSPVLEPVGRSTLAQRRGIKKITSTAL
# T23 sequence (P36507 whole entry, species assumed): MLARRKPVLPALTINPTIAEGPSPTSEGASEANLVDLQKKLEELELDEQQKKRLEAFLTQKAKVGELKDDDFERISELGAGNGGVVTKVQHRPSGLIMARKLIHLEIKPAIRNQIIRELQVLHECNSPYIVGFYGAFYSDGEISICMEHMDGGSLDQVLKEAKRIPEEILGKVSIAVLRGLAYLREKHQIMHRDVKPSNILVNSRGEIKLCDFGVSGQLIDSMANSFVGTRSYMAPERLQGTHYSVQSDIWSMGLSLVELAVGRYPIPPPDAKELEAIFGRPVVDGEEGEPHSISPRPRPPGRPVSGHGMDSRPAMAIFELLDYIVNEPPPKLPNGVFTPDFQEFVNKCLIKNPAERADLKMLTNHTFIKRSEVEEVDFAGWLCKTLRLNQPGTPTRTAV
# T5 sequence (Q9UHD2 whole entry, species assumed): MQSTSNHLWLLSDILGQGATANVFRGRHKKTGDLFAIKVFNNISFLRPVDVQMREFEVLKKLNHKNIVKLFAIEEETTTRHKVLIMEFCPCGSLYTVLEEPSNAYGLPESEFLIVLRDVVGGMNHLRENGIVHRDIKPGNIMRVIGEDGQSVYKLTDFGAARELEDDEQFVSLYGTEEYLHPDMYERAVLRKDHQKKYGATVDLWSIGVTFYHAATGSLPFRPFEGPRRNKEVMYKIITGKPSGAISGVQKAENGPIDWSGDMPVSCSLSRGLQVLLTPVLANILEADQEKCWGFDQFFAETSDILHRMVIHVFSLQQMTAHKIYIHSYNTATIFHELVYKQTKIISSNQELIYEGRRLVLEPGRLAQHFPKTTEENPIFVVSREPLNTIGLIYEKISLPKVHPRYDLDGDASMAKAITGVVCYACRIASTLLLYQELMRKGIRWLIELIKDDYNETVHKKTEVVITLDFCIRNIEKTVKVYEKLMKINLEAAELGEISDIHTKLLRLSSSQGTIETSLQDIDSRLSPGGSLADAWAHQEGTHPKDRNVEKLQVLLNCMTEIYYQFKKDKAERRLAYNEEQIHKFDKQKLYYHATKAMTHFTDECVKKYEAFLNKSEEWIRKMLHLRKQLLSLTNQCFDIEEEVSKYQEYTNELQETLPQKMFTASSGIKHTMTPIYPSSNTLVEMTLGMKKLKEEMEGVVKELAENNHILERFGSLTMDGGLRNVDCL
# T3 sequence (P51955 whole entry, species assumed): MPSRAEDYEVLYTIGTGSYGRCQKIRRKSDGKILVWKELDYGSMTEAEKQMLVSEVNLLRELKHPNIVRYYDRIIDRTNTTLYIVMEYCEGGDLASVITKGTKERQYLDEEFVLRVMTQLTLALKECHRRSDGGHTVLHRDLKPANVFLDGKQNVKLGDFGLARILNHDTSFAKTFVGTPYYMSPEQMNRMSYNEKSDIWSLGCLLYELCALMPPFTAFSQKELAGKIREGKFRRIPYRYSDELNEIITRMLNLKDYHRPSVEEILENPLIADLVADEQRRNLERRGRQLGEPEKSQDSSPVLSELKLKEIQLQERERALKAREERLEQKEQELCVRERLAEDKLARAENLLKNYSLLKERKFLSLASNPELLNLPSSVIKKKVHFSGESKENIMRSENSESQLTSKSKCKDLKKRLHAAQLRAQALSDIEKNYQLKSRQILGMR
# T25 sequence (P27361 whole entry, species assumed): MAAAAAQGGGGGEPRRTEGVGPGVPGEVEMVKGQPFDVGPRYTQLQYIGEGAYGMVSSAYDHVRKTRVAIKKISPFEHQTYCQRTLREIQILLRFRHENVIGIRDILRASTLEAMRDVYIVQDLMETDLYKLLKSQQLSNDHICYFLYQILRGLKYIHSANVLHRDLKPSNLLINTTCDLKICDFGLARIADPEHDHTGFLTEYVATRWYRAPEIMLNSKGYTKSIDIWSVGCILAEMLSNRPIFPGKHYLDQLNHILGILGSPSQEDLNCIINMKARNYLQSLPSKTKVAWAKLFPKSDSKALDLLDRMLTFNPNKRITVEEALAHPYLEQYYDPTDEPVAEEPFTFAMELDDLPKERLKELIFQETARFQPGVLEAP
compound,measurement,setting,value
O=C(Nc1cc(C(F)(F)F)cc(C(F)(F)F)c1)Nc1ccc(Br)cc1-c1nnn[nH]1 [SCO-101],remaining activity at 10 µM,[1],84%
same,remaining activity at 10 µM,[2],105%
same,remaining activity at 10 µM,[3],134%
same,remaining activity at 10 µM,[4],106%
same,remaining activity at 10 µM,[5],126%
same,remaining activity at 10 µM,[6],38%
same,remaining activity at 10 µM,[7],39%
same,remaining activity at 10 µM,[8],122%
same,remaining activity at 10 µM,[9],75%
same,remaining activity at 10 µM,[10],92%
same,remaining activity at 10 µM,[11],101%
same,remaining activity at 10 µM,[12],121%
same,remaining activity at 10 µM,[13],99%
same,remaining activity at 10 µM,[14],95%
same,remaining activity at 10 µM,[15],57%
same,remaining activity at 10 µM,[16],64%
same,remaining activity at 10 µM,[17],128%
same,remaining activity at 10 µM,[18],101%
same,remaining activity at 10 µM,[19],95%
same,remaining activity at 10 µM,[20],100%
same,remaining activity at 10 µM,[21],101%
same,remaining activity at 10 µM,[22],77%
same,remaining activity at 10 µM,[23],114%
same,remaining activity at 10 µM,[24],108%
same,remaining activity at 10 µM,[25],110%
same,remaining activity at 10 µM,[26],122%
same,remaining activity at 10 µM,[27],94%
same,remaining activity at 10 µM,[28],105%
same,remaining activity at 10 µM,[29],137%
same,"viability at 72 h, 20 μM",[30],96%
same,viability at 20 µM,"[31]; Homo sapiens, HT-29, HT29 SN38 resistant, combination of SN38 0.1 μM and SCO-101 20 μM, read-out: cell viability, % of untreated control cells",22%
same,re-sensitization of SN38 resistant HT29 cells to SN38,[31]; SCO-101 20 μM with SN38 0.1 μM,re-sensitization

# Source: US20210251963A1, “UREA DERIVATIVES FOR USE IN THE TREATMENT OF SUBJECTS WITH ELEVATED EXPRESSION AND/OR ACTIVITY OF SRPK1” (Scandion Oncology A/S, priority 2018, published 2021)
